What all share (type): cell-based
Assay [1] relates to RS4; 11 cells with stable shRNA knockdown of p53. Kind of assay: Cell growth inhibition by WST assay, p53 knockdown cells. Also noted: LogIC50: unit not given here. The following applies: RS4;11 sh p53, 4 days; for IC50: Homo sapiens, 96 h. As to the method: (§1) RS4; 11 cells with stable shRNA knockdown of p53 or those transfected shRNA control vector were treated with Cpd. A, Cpd. B, Cpd. No. 14, Cpd. No. 21, Cpd. No. 15, and Cpd. No. 22 for 4 days, with a cell concentration of ˜15,000/well. Cell growth inhibition was determined by WST assay. See Table 7 (p53) and Table 8 (control). Significant increases in IC50 of the Compounds of the Disclosure in the p53 knockdown RS4; 11 cells were observed compared with that in the sh control cells. […] The p53 knockdown efficiency was determined by western blot for p53 protein levels with or without treatment of Cpd. A (1 μM) for 2 hours.

Assay [2] concerns RS4; 11 cells transfected shRNA control vector. The assay is described as follows: Cell growth inhibition by WST assay, shRNA control cells. On the set-up: LogIC50: unit not given here. As to conditions: RS4;11 sh Control, 4 days; for IC50: Homo sapiens, 96 h. As to the method: as §1
For a further assay, the system named is MV4-11 cell line. Kind of assay: CellTiter-Glo Luminescent Cell Viability Assay, cell growth inhibition. The following applies: Homo sapiens, 96 h, 4 days. A digest of the protocol:
(§2)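 Cells plated at 2,000/well with serially diluted compounds, incubated 4 days at 37° C, 5% CO2. Viability read by CellTiter-Glo luminescence after 10-20 min at room temperature; IC50 from dose-response fit.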

In the next assay the test system is RS4; 11 cell line. Described as above. The following applies: Homo sapiens, 96 h, 4 days. The method in brief:
as §2

For the compound `COCCONC(=O)c1ccc(NC(=O)[C@@H]2NC3(CCCCC3)[C@@]3(C(=O)Nc4cc(Cl)ccc43)[C@H]2c2cccc(Cl)c2F)cc1` [Cpd. B, reference compound], in assay [1], the IC50 worked out at 5670 nM, the HiliSlope is listed as −0.7973 and the LogIC50 is 0.7537. Moreover, in assay [2], the midpoint of inhibition, the IC50, lay at 85.3 nM; the HiliSlope is given as −0.9620; the LogIC50 is recorded as −1.069.
For `O=C1CCC(N2C(=O)c3cccc(NCCOCCOCCOCCOCCOCCOCCOCCNC(=O)c4ccc(NC(=O)[C@@H]5NC6(CCCCC6)[C@@]6(C(=O)Nc7cc(Cl)ccc76)[C@H]5c5cccc(Cl)c5F)cc4)c3C2=O)C(=O)N1` (stereo partly drawn) [Cpd. No. 16, (3′R,4'S,5′R)-6″-chloro-4′-(3-chloro-2-fluorophenyl)-N-(4-((23-((2-(2,6-dioxopiperidin-3-yl)-1,3-dioxoisoindolin-4-yl)amino)-3,6,9,12,15,18,21-heptaoxatricosyl)carbamoyl)phenyl)-2″-oxodispiro[cyclohexane-1,2′-pyrrolidine-3′,3″-indoline]-5′-carboxamide], the IC50 in the assay with MV4-11 cell line was found to be 2.7 nM; with RS4; 11 cell line, 4.7 nM.
The matching figures for `O=C1CCC(N2C(=O)c3cccc(NCCCOCCCCOCCCNC(=O)c4ccc(NC(=O)[C@@H]5NC6(CCCCC6)[C@@]6(C(=O)Nc7cc(Cl)ccc76)[C@H]5c5cccc(Cl)c5F)cc4)c3C2=O)C(=O)N1` (stereo partly drawn) [Cpd. No. 17, (3′R,4'S,5′R)-6″-chloro-4′-(3-chloro-2-fluorophenyl)-N-(4-((3-(4-(3-((2-(2,6-dioxopiperidin-3-yl)-1,3-dioxoisoindolin-4-yl)amino)propoxy)butoxy)propyl)carbamoyl)phenyl)-2″-oxodispiro[cyclohexane-1,2′-pyrrolidine-3′,3″-indoline]-5′-carboxamide]: 21 nM and 19 nM.
Consider `O=C1CCC(N2C(=O)c3cccc(NCCCOCCOCCOCCCNC(=O)c4ccc(NC(=O)[C@@H]5NC6(CCCCC6)[C@@]6(C(=O)Nc7cc(Cl)ccc76)[C@H]5c5cccc(Cl)c5F)cc4)c3C2=O)C(=O)N1` (stereo partly drawn) [Cpd. No. 18, (3′R,4'S,5′R)-6″-chloro-4′-(3-chloro-2-fluorophenyl)-N-(4-((3-(2-(2-(3-((2-(2,6-dioxopiperidin-3-yl)-1,3-dioxoisoindolin-4-yl)amino)propoxy)ethoxy)ethoxy)propyl)carbamoyl)phenyl)-2″-oxodispiro[cyclohexane-1,2′-pyrrolidine-3′,3″-indoline]-5′-carboxamide], for which the results for the IC50 in the assay with MV4-11 cell line and in the assay with RS4; 11 cell line were 5.2 nM and 7.4 nM, respectively.
`O=C1CCC(N2Cc3c(NCCOCCNC(=O)c4ccc(NC(=O)[C@@H]5NC6(CCCCC6)[C@@]6(C(=O)Nc7cc(Cl)ccc76)[C@H]5c5cccc(Cl)c5F)cc4)cccc3C2=O)C(=O)N1` (stereo partly drawn) [Cpd. No. 20, (3′R,4'S,5′R)-6″-chloro-4′-(3-chloro-2-fluorophenyl)-N-(4-((2-(2-((2-(2,6-dioxopiperidin-3-yl)-1-oxoisoindolin-4-yl)amino)ethoxy)ethyl)carbamoyl)phenyl)-2″-oxodispiro[cyclohexane-1,2′-pyrrolidine-3′,3″-indoline]-5′-carboxamide]: the IC50 in the assay on MV4-11 cell line was 7.6 nM; with RS4; 11 cell line, 8.5 nM.
Take `O=C1CCC(N2Cc3c(NCCOCCOCCNC(=O)c4ccc(NC(=O)[C@@H]5NC6(CCCCC6)[C@@]6(C(=O)Nc7cc(Cl)ccc76)[C@H]5c5cccc(Cl)c5F)cc4)cccc3C2=O)C(=O)N1` (stereo partly drawn) [Cpd. No. 21, (3′R,4'S,5′R)-6″-chloro-4′-(3-chloro-2-fluorophenyl)-N-(4-((2-(2-(2-((2-(2,6-dioxopiperidin-3-yl)-1-oxoisoindolin-4-yl)amino)ethoxy)ethoxy)ethyl)carbamoyl)phenyl)-2″-oxodispiro[cyclohexane-1,2′-pyrrolidine-3′,3″-indoline]-5′-carboxamide]: the IC50 in the assay with MV4-11 cell line is 2 nM; in the assay with RS4; 11 cell line it was 4.4 nM; in assay [1], 4160 nM; in assay [2] it was 13.1 nM. Further, the HiliSlope in assay [1] is recorded as −0.4410; in assay [2], −1.448. For the same compound, the LogIC50 in assay [1] was 0.6196; in assay [2], −1.882.
As to `O=C1CCC(N2Cc3c(NCCOCCOCCOCCOCCNC(=O)c4ccc(NC(=O)[C@@H]5NC6(CCCCC6)[C@@]6(C(=O)Nc7cc(Cl)ccc76)[C@H]5c5cccc(Cl)c5F)cc4)cccc3C2=O)C(=O)N1` (stereo partly drawn) [Cpd. No. 23, (3′R,4'S,5′R)-6″-chloro-4′-(3-chloro-2-fluorophenyl)-N-(4-((14-((2-(2,6-dioxopiperidin-3-yl)-1-oxoisoindolin-4-yl)amino)-3,6,9,12-tetraoxatetradecyl)carbamoyl)phenyl)-2″-oxodispiro[cyclohexane-1,2′-pyrrolidine-3′,3″-indoline]-5′-carboxamide], the results for the IC50 with MV4-11 cell line and in the assay on RS4; 11 cell line were 21 nM and 19 nM, respectively.
On the same counts, the results for `O=C1CCC(N2C(=O)c3cccc(NCCOCCOCCNC(=O)c4ccc(NC(=O)[C@@H]5NC6(CCCCC6)[C@@]6(C(=O)Nc7cc(Cl)ccc76)[C@H]5c5cccc(Cl)c5F)nc4)c3C2=O)C(=O)N1` (stereo partly drawn) [Cpd. No. 24, (3′R,4'S,5′R)-6″-chloro-4′-(3-chloro-2-fluorophenyl)-N-(5-((2-(2-(2-((2-(2,6-dioxopiperidin-3-yl)-1,3-dioxoisoindolin-4-yl)amino)ethoxy)ethoxy)ethyl)carbamoyl)pyridin-2-yl)-2″-oxodispiro[cyclohexane-1,2′-pyrrolidine-3′,3″-indoline]-5′-carboxamide] are 5 nM and 7 nM.
For `CCN1[C@@H](C(=O)NC23CCC(C(=O)NCCCOCCOCCOCCCNC(=O)COc4cccc5c4C(=O)N(C4CCC(=O)NC4=O)C5=O)(CC2)CC3)[C@H](c2cccc(Cl)c2F)[C@]2(C(=O)Nc3cc(Cl)ccc32)C12CCCCC2` (stereo partly drawn) [Cpd. No. 46, (3′R,4'S,5′R)-6″-chloro-4′-(3-chloro-2-fluorophenyl)-N-(4-((1-((2-(2,6-dioxopiperidin-3-yl)-1,3-dioxoisoindolin-4-yl)oxy)-2-oxo-7,10,13-trioxa-3-azahexadecan-16-yl)carbamoyl)bicyclo[2.2.2]octan-1-yl)-1′-ethyl-2″-oxodispiro[cyclohexane-1,2′-pyrrolidine-3′,3″-indoline]-5′-carboxamide], the IC50 with MV4-11 cell line and in the assay with RS4; 11 cell line was 20 nM each time.
For the compound `CCN1[C@@H](C(=O)NC23CCC(C(=O)NCCOCCOCCOCCOCC(=O)N[C@H](C(=O)N4C[C@H](O)C[C@H]4C(=O)NCc4ccc(-c5scnc5C)cc4)C(C)(C)C)(CC2)CC3)[C@H](c2cccc(Cl)c2F)[C@]2(C(=O)Nc3cc(Cl)ccc32)C12CCCCC2` [Cpd. No. 48, (3′R,4'S,5′R)-6″-chloro-4′-(3-chloro-2-fluorophenyl)-1′-ethyl-N-(4-(((S)-16-((2S,4R)-4-hydroxy-2-((4-(4-methylthiazol-5-yl)benzyl)carbamoyl)pyrrolidine-1-carbonyl)-17,17-dimethyl-14-oxo-3,6,9,12-tetraoxa-15-azaoctadecyl)carbamoyl)bicyclo[2.2.2]octan-1-yl)-2″-oxodispiro[cyclohexane-1,2′-pyrrolidine-3′,3″-indoline]-5′-carboxamide], the IC50 came to 130 nM in the assay with MV4-11 cell line and 190 nM with RS4; 11 cell line.

(Values after patent US12637473B2, “MDM2 protein degraders” (THE REGENTS OF THE UNIVERSITY OF MICHIGAN, priority 2016, dated 2026).)
